How the values were obtained:
Type in all cases: in vivo
[1] = system: Kochia (Kochia scoparia); assay: Test A preemergence; details: Bassia scoparia, pre-emergence, 240 h, preemergence, read-out: Plant response rating, Kochia
Outline: (§1)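 Ratings of 0 (no effect) to 100 (complete control) come from visual comparison with untreated controls roughly 10 d after treatment. Test chemicals, formulated in a non-phytotoxic solvent mixture with surfactant, were applied either as a preemergence directed soil spray on seeded soil or postemergence to one- to two-leaf plants 2 to 10 cm tall.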

[2] = system: barnyardgrass (Echinochloa crus-galli); assay: Test A preemergence; details: Echinochloa crus-galli, pre-emergence, 240 h, preemergence, read-out: Plant response rating, Barnyardgrass
Outline: as §1

[3] = system: giant foxtail (Setaria faberii); assay: Test A preemergence; details: Setaria faberi, pre-emergence, 240 h, preemergence, read-out: Plant response rating, Foxtail, Giant
Outline: as §1

[4] = system: pigweed (Amaranthus retroflexus); assay: Test A preemergence; details: Amaranthus retroflexus, pre-emergence, 240 h, preemergence, read-out: Plant response rating, Pigweed
[5] = system: ragweed (common ragweed, Ambrosia elatior); assay: Test A preemergence; details: Ambrosia artemisiifolia, pre-emergence, 240 h, preemergence, read-out: Plant response rating, Ragweed
Outline: as §1

[6] = system: ryegrass, Italian (Italian ryegrass, Lolium multiflorum); assay: Test A preemergence; details: Lolium multiflorum, pre-emergence, 240 h, preemergence, read-out: Plant response rating, Ryegrass, Italian
Outline: as §1

[7] = system: Galium (catchweed bedstraw, Galium aparine); assay: Test A postemergence; details: Galium, post-emergence, 240 h, 125 g ai/ha, postemergence; visual injury after approximately 10 d; 0 to 100 scale (0 no effect, 100 complete control); read-out: Plant response rating, Galium
Outline: as §1

[8] = system: Kochia (Kochia scoparia); assay: Test A postemergence; details: Bassia scoparia, post-emergence, 240 h, 125 g ai/ha, postemergence; visual injury after approximately 10 d; 0 to 100 scale (0 no effect, 100 complete control); read-out: Plant response rating, Kochia
Outline: as §1

[9] = system: barnyardgrass (Echinochloa crus-galli); assay: Test A postemergence; details: Echinochloa crus-galli, post-emergence, 240 h, 125 g ai/ha, postemergence; visual injury after approximately 10 d; 0 to 100 scale (0 no effect, 100 complete control); read-out: Plant response rating, Barnyardgrass
Outline: as §1

[10] = system: blackgrass (Alopecurus myosuroides); assay: Test A postemergence; details: Alopecurus myosuroides, post-emergence, 240 h, 125 g ai/ha, postemergence; visual injury after approximately 10 d; 0 to 100 scale (0 no effect, 100 complete control); read-out: Plant response rating, Blackgrass
Outline: as §1

[11] = system: corn (Zea mays); assay: Test A postemergence; details: Zea mays, post-emergence, 240 h, 125 g ai/ha, postemergence; visual injury after approximately 10 d; 0 to 100 scale (0 no effect, 100 complete control)
Outline: as §1

[12] = system: giant foxtail (Setaria faberii); assay: Test A postemergence; details: Setaria faberi, post-emergence, 240 h, 125 g ai/ha, postemergence; visual injury after approximately 10 d; 0 to 100 scale (0 no effect, 100 complete control); read-out: Plant response rating, Foxtail, Giant
Outline: as §1

[13] = system: pigweed (Amaranthus retroflexus); assay: Test A postemergence; details: Amaranthus retroflexus, post-emergence, 240 h, 125 g ai/ha, postemergence; visual injury after approximately 10 d; 0 to 100 scale (0 no effect, 100 complete control); read-out: Plant response rating, Pigweed
Outline: as §1

[14] = system: ragweed (common ragweed, Ambrosia elatior); assay: Test A postemergence; details: Ambrosia artemisiifolia, post-emergence, 240 h, 125 g ai/ha, postemergence; visual injury after approximately 10 d; 0 to 100 scale (0 no effect, 100 complete control); read-out: Plant response rating, Ragweed
Outline: as §1

[15] = system: wheat (Triticum aestivum); assay: Test A postemergence; details: Triticum aestivum, post-emergence, 240 h, 125 g ai/ha, postemergence; visual injury after approximately 10 d; 0 to 100 scale (0 no effect, 100 complete control); read-out: Plant response rating, Wheat
Outline: as §1

[16] = 125 g ai/ha, visual rating after approx. 10 d, 0 to 100 scale where 0 is no effect and 100 is complete control
[17] = 500 g ai/ha, 0 to 100 scale, 0 = no effect, 100 = complete control

CCc1cc(CC)cc([C@H]2CN(C)C(=O)[C@@H]2C(=O)Nc2cccc(F)c2F)c1 [Compound 736]
pest or weed control at 125 g/ha [1, 16]: 20%
pest or weed control at 500 g/ha [1, 17]: 70%
pest or weed control at 125 g/ha [2, 16]: 90%
pest or weed control at 500 g/ha [2, 17]: 90%
pest or weed control at 125 g/ha [3, 16]: 90%
pest or weed control at 500 g/ha [3, 17]: 90%
pest or weed control at 125 g/ha [4, 16]: 0%
pest or weed control at 500 g/ha [4, 17]: 20%
pest or weed control at 125 g/ha [5, 16]: 0%
pest or weed control at 500 g/ha [5, 17]: 20%
pest or weed control at 125 g/ha [6, 16]: 90%
pest or weed control at 500 g/ha [6, 17]: 90%
pest or weed control at 125 g/ha [7]: 50%
pest or weed control at 125 g/ha [8]: 20%
pest or weed control at 125 g/ha [9]: 90%
pest or weed control at 125 g/ha [10]: 60%
Corn plant response rating (crop injury, 0 = no effect, 100 = complete kill) at 125 g/ha [11]: 90%
pest or weed control at 125 g/ha [12]: 90%
pest or weed control at 125 g/ha [13]: 20%
pest or weed control at 125 g/ha [14]: 0%
plant injury at 125 g/ha [15]: 50%

— patent US12077503B2, “Substituted cyclic amides and their use as herbicides” (FMC CORPORATION, priority 2015, dated 2024)
